The values that follow come from US12291502B2, “Topoisomerase II-alpha inhibitors and methods of treating cancer using the same” (The Regents of the University of Colorado, priority 2019, dated 2025).

The nature of this series: LCMS quantitation of compound in harvested tumors. The note with it: i.p. 50 mg/kg, 5× per week over 28 days. The format is in vivo, athymic nude mouse. As to the method:
Mass spectrometry analysis and Sample preparation. Tumor tissue was isolated, flash frozen in liquid nitrogen, and stored at −80° C. until analysis. Prior to LC-MS analysis, samples were milled in liquid nitrogen and weighed. Tissue was then placed in tubes containing ˜50-75 μL of glass beads (NextAdvance SKU GB10), resuspended to 15 mg/ml in methanol:acetonitrile:water (5:3:2, v:v:v) and processed using a Bullet Blender® (Next Advance, Troy, NY, USA) for 5 minutes at level 4 at 4° C. Suspensions were then vortexed continuously for 30 min at 4° C. Insoluble material was removed by centrifugation at 10,000 g for 10 min at 4° C. and supernatants were isolated for metabolomics analysis by UHPLC-MS. Standard curves were prepared by serial dilution of the purified AA-29-141 compound into a pool of vehicle-treated tumor extract.
UHPLC-MS analysis for quantification of 42 in tumor tissue. Analyses were performed as previously published. Briefly, the analytical platform employs a Vanquish UHPLC system (Thermo Fisher Scientific, San Jose, CA, USA) coupled online to a Q Exactive mass spectrometer (Thermo Fisher Scientific, San Jose, CA, USA). […]

Regarding `O=C(CCN1CCOCC1)Nc1ccc2c(-c3cc(F)ccc3O)ccnc2c1O` [Analog 42], the “quantity of compound in tumors (LCMS/HRMS)” value is listed as “significant HRMS quantity”.
